Results from patent US8426408B2, “Pyrimidine inhibitors of kinases” (AbbVie Inc., priority 2009, dated 2013).
pKi: −log10 of the molar value.

What was measured:
KDR = KDR (Homo sapiens, UniProt P35968); experiment: KDR HTRF in vitro kinase assay; type: biochemical; design: purified enzyme (His6-KDR 789-1354, MW 63 kD); His6 (N); conditions: 1 mM ATP; read-out: KDR enzyme inhibition data (Ki)
How it was run: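 His6-KDR 789-1354 (7 ng/well) with 0.5 μM biotinylated peptide substrate and 1 mM ATP in HEPES pH 7.1, MgCl2/MnCl2, 60 min at room temperature. EDTA-quenched, detected by streptavidin-XL-665 plus Eu-kryptate anti-phosphotyrosine HTRF after 3 h; IC50 from 620/665 nm ratio.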

Aurora A = target: T1, Aurora A (Homo sapiens, UniProt O14965); experiment: Aurora A enzyme inhibition (time-resolved fluorescence, STK substrate-2); type: biochemical; conditions: 1 mM ATP
T1 sequence (O14965 1-403): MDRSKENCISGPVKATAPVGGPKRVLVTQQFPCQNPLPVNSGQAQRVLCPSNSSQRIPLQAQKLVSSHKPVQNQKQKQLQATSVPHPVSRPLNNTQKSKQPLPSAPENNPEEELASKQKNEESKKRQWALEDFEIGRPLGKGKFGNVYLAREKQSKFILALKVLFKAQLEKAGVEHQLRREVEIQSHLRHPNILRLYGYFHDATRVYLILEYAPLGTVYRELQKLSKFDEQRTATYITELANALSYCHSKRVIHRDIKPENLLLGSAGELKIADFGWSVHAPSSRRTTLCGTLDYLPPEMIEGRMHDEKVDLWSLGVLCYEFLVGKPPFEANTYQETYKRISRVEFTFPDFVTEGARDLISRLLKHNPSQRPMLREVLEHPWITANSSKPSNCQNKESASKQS
How it was run: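 Phosphorylation of biotinylated STK substrate-2 at 1 mM ATP, 1 h, Hepes buffer pH 7.4 (MgCl2, sodium orthovanadate, Triton X-100). After EDTA quench, 665/615 nm time-resolved fluorescence ratio read via europium anti-phospho antibody and SA-XL665; IC50 from exponential fit versus inhibitor concentration.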

Sequence of KDR (P35968 789-1354): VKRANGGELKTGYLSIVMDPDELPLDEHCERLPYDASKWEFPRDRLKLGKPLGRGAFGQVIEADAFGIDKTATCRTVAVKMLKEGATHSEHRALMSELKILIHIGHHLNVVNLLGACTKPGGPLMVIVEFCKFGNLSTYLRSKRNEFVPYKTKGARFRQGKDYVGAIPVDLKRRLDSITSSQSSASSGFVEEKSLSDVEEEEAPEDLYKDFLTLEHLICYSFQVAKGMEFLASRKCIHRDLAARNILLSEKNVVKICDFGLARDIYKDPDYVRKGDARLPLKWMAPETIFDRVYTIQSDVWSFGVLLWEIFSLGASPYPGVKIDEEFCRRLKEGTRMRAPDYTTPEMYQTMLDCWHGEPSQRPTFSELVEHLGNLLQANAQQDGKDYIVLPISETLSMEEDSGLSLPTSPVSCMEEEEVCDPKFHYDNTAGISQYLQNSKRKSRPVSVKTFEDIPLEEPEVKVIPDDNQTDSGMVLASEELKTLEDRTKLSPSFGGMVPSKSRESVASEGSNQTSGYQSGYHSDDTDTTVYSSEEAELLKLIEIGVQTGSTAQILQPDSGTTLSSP

SMILES | pKi (KDR) | pKi (Aurora A)
CN1CCN(CCn2cc(Nc3ncc(Br)c(N[C@H]4[C@@H](C(N)=O)[C@@H]5C=C[C@H]4C5)n3)cn2)CC1 [Example 94, (1S,2S,3R,4R)-3-{[5-bromo-2-({1-[2-(4-methylpiperazin-1-yl)ethyl]-1H-pyrazol-4-yl}amino)pyrimidin-4-yl]amino}bicyclo[2.2.1]hept-5-ene-2-carboxamide] | > 7.00 | > 7.00
NC(=O)[C@@H]1[C@H](Nc2nc(Nc3cnn(C4CCNCC4)c3)ncc2Br)[C@H]2C=C[C@@H]1C2 [Example 95, (1S,2S,3R,4R)-3-[(5-bromo-2-{[1-(piperidin-4-yl)-1H-pyrazol-4-yl]amino}pyrimidin-4-yl)amino]bicyclo[2.2.1]hept-5-ene-2-carboxamide] | > 7.00 | > 7.00
COCCn1cc(Nc2ncc(Cl)c(N[C@H]3[C@@H](C(N)=O)[C@@H]4C=C[C@H]3C4)n2)cn1 [Example 96, (1S,2S,3R,4R)-3-[(5-chloro-2-{[1-(2-methoxyethyl)-1H-pyrazol-4-yl]amino}pyrimidin-4-yl)amino]bicyclo[2.2.1]hept-5-ene-2-carboxamide] | > 7.00 | > 7.00
